Assay results as given in ChEMBL document CHEMBL4602617, “Discovery and optimization of heteroaryl piperazines as potent and selective PI3Kδ inhibitors” (Bioorg Med Chem Lett, 2020).

Columns and labels:
[1] = target: Caspase-3 (Homo sapiens) (UniProt P42574); test: Inhibition of recombinant full-length human caspase 3 expressed in Escherichia coli at 10 uM using Ac-DEVD-AMC as substrate after 60 mins by spectrophotometric analysis relative to control
[2] = target: Adenosine receptor A1 (Homo sapiens) (UniProt P30542); test: Displacement of [3H]DPCPX from full length recombinant human A1AR expressed in CHO cell membranes at 10 uM measured after 90 mins by scintillation counting method relative to control
[3] = target: Sodium-dependent noradrenaline transporter (Homo sapiens) (UniProt P23975); test: Displacement of [125I]RTI-55 from full length recombinant human NET expressed in MDCK cells at 10 uM after 3 hrs by radiometric scintillation analysis relative to control; assay type: cell-based
[4] = target: 3-phosphoinositide-dependent protein kinase 1 (Homo sapiens, UniProt O15530); test: Inhibition of full length recombinant His-tagged human PDK1 expressed in baculovirus expression system using Ser/Thr 07 as substrate after 1 hr in presence of ATP by Z'LYTE assay
[5] = target: Tyrosine-protein kinase TXK (Homo sapiens, UniProt P42681); test: Inhibition of recombinant human GST-tagged TXK catalytic domain (260 to 527 residues) expressed in baculovirus expression system using tyrosine-6 peptide as substrate incubated for 60 mins in presence of ATP by Z'-LYTE assay
[6] = target: GABA-A receptor; anion channel (Rattus norvegicus) (UniProt O09028+P15431+P18506+P18508+P19969+P20236+P23574+P23576+P28471+P28473+P30191+P62813+P63079+P63138+Q91ZM7+Q9ES14); test: Displacement of [3H]-Ro15-1788 from GABA(A) receptor in Wistar rat hippocampus at 10 uM incubated for 120 mins by radiometric scintillation analysis relative to control; assay type: tissue-based
[7] = target: Fibroblast growth factor receptor 3 (Homo sapiens, UniProt P22607); test: Inhibition of recombinant His-tagged human FGFR3 (399 to 806 residues) cytoplasmic domain expressed in baculovirus expression system using Tyr 04 peptide as substrate after 1 hr in presence of ATP by Z'-LYTE assay
[8] = target: Serine/threonine-protein kinase haspin (Homo sapiens, UniProt Q8TF76); test: Inhibition of recombinant N-terminal GST tagged human GSG2 catalytic domain (471 to 798 residues) expressed in baculovirus expression system using Histone H3 (1-20) peptide as substrate after 1 hr in presence of ATP by ADAPTA assay
[9] = target: Myosin light chain kinase 2, skeletal/cardiac muscle (Homo sapiens, UniProt Q9H1R3); test: Inhibition of recombinant full length human GST-tagged MYLK2 expressed in baculovirus expression system using […] peptide as substrate incubated for 60 mins in presence of ATP by Z'-LYTE assay
[10] = target: Alpha-1B adrenergic receptor (Rattus norvegicus) (UniProt P15823); test: Displacement of [3H]prazosin from alpha1b adrenergic receptor in Wistar rat liver membranes at 10 uM measured after 60 mins by scintillation counting method relative to control; assay type: cell membranes; conditions: Membrane
[11] = target: Casein kinase II subunit alpha (Homo sapiens, UniProt P68400); test: Inhibition of recombinant human full-length His-tagged CSNK2A1 expressed in baculovirus expression system using FRET-labeled Ser/Thr 11 peptide as substrate measured after 1 hr in presence of ATP by Z'-lyte assay
[12] = target: Histamine H4 receptor (Homo sapiens) (UniProt Q9H3N8); test: Inhibition of human histamine H4 receptor at 10 uM relative to control
[13] = target: Sodium-dependent serotonin transporter (Homo sapiens) (UniProt P31645); test: Displacement of [3H]paroxetine from full length recombinant human […] expressed in HEK293 cells at 10 uM after 60 mins by radiometric scintillation analysis relative to control; assay type: cell-based
[14] = target: Vasopressin V1b receptor (Homo sapiens) (UniProt P47901); test: Displacement of [3H]-(Arg8)-Vasopressin from recombinant full length human V1B receptor expressed in CHO-K1 cells at 10 uM after 120 mins by radiometric scintillation analysis relative to control; assay type: cell-based
[15] = target: 5-hydroxytryptamine receptor 3A (Homo sapiens) (UniProt P46098); test: Displacement of [3H]GR-65630 from full length human recombinant 5HT3 receptor expressed in HEK293 cells at 10 uM measured after 60 mins by radiometric scintillation analysis relative to control; assay type: cell-based
[16] = target: Alpha-2B adrenergic receptor (Homo sapiens) (UniProt P18089); test: Displacement of [3H]rauwolscine from full-length recombinant human alpha2B receptor expressed in CHOK1 cells at 10 uM measured after 60 mins by scintillation counting method relative to control; assay type: cell-based; conditions: CHO-K1
[17] = target: Protein kinase C beta type (Homo sapiens, UniProt P05771); test: Inhibition of recombinant full length human GST-tagged PKCbeta1 expressed in insect expression system using serine/threonine-7 peptide as substrate incubated for 60 mins in presence of ATP by Z'-LYTE assay
[18] = target: Serine/threonine-protein kinase Chk2 (Homo sapiens, UniProt O96017); test: Inhibition of recombinant human full-length His-tagged CHEK2 expressed in baculovirus expression system using FRET-labeled Ser/Thr 07 peptide as substrate measured after 1 hr in presence of ATP by Z'-lyte assay
[19] = organism: Homo sapiens; test: Inhibition of human nicotinic acetylcholine receptor at 10 uM relative to control
[20] = target: Serine/threonine-protein kinase PLK1 (Homo sapiens, UniProt P53350); test: Inhibition of recombinant full length human His-tagged PLK1 expressed in baculovirus expression system using serine/threonine-16 peptide as substrate incubated for 60 mins in presence of ATP by Z'-LYTE assay
[21] = target: Platelet-derived growth factor receptor alpha (Homo sapiens, UniProt P16234); test: Inhibition of recombinant human GST-tagged PDGFRalpha cytoplasmic domain (550 to 1089 residues) expressed in baculovirus expression system using tyrosine-4 peptide as substrate incubated for 60 mins in presence of ATP by Z'-LYTE assay
[22] = target: Vascular endothelial growth factor receptor 2 (Homo sapiens, UniProt P35968); test: Inhibition of recombinant human His-tagged KDR (789 to 1356 residues) expressed in baculovirus expression system using Tyr1 as substrate incubated for 1 hr in presence of ATP by Z'-LYTE assay
[23] = target: Rhodopsin kinase GRK7 (Homo sapiens, UniProt Q8WTQ7); test: Inhibition of recombinant full length human GST-tagged GRK7 expressed in baculovirus expression system using serine/threonine-16 peptide as substrate incubated for 60 mins in presence of ATP by Z'-LYTE assay
[24] = target: Mitogen-activated protein kinase kinase kinase kinase 2 (Homo sapiens, UniProt Q12851); test: Inhibition of recombinant full length human HIs-tagged MAP4K2 expressed in baculovirus expression system using serine/threonine-7 peptide as substrate incubated for 60 mins in presence of ATP by Z'-LYTE assay
[25] = target: Muscarinic acetylcholine receptor M2 (Homo sapiens) (UniProt P08172); test: Displacement of [3H]N-Methylscopolamine from full length human recombinant Muscarinic M2 receptor expressed in CHOK1 cells at 10 uM measured after 120 mins by radiometric scintillation analysis relative to control; assay type: cell-based; conditions: CHO-K1

Chain of Vasopressin V1b receptor (Homo sapiens) (P47901 whole entry): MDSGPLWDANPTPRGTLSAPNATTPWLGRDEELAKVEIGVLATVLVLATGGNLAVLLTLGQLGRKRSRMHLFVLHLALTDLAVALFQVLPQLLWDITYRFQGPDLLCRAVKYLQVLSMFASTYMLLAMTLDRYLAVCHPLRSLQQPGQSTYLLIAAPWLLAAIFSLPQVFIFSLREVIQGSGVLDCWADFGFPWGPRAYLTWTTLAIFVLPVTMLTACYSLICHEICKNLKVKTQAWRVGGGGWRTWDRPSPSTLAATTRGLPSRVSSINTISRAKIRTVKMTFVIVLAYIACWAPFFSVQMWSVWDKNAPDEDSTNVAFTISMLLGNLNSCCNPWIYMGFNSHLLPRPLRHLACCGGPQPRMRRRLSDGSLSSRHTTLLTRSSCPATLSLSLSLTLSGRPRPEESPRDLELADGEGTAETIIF
Chain of Histamine H4 receptor (Homo sapiens) (Q9H3N8 whole entry): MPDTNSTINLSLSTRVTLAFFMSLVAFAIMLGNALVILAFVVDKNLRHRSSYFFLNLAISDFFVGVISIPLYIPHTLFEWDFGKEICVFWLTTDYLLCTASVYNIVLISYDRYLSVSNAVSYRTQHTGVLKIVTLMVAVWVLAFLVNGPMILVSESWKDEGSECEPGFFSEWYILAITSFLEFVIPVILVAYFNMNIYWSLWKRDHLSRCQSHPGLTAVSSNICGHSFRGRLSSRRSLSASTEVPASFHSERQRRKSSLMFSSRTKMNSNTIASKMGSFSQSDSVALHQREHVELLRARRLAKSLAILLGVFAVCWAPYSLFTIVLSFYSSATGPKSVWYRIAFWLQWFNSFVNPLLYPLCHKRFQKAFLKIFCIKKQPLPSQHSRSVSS
Chain of Sodium-dependent serotonin transporter (Homo sapiens) (P31645 whole entry, looked up): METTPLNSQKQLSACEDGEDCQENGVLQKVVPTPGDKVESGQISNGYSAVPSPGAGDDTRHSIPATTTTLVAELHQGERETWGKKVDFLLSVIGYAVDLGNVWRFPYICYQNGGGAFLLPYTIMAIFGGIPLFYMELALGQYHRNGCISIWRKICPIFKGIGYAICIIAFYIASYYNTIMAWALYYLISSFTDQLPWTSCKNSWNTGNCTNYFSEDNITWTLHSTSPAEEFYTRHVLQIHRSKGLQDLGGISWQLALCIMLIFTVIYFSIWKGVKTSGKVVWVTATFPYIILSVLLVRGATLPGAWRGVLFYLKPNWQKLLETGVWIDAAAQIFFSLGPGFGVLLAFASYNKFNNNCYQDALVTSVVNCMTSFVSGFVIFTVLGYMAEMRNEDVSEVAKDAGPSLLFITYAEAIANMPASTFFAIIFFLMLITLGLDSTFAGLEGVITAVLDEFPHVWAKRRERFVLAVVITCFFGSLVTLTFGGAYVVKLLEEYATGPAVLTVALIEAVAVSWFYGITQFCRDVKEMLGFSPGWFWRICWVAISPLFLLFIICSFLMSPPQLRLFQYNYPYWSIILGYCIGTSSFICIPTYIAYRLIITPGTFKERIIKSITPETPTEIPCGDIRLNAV
Chain of Sodium-dependent noradrenaline transporter (Homo sapiens) (P23975 whole entry): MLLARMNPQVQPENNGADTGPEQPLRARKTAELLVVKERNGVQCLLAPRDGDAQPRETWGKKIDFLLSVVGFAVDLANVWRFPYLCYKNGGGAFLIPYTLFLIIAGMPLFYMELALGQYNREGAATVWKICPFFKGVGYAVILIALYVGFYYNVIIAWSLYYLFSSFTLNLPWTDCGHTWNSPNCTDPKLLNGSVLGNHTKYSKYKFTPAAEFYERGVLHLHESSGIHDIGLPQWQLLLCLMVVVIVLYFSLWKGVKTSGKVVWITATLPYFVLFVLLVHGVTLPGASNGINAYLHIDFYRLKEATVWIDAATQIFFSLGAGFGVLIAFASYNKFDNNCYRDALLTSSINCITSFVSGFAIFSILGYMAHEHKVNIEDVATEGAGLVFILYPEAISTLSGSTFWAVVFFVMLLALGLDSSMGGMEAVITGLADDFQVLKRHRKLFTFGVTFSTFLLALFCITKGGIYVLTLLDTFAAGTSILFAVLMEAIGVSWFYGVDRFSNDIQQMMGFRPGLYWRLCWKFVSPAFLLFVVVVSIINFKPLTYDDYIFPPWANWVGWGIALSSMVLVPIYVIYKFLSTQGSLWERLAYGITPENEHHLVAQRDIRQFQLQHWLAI
Chain of 5-hydroxytryptamine receptor 3A (Homo sapiens) (P46098 whole entry): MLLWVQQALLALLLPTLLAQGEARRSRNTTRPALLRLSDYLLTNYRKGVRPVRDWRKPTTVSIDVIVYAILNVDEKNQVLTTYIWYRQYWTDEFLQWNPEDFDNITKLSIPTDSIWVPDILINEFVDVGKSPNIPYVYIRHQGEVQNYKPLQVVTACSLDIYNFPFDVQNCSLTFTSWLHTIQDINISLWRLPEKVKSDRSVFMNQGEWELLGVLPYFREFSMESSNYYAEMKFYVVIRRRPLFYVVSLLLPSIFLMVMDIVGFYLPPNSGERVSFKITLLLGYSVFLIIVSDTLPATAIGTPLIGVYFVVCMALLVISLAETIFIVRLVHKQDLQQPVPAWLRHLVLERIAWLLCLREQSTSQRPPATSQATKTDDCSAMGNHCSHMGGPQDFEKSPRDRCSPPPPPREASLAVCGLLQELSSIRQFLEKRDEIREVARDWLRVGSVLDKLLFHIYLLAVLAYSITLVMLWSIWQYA
Chain of Mitogen-activated protein kinase kinase kinase kinase 2 (Q12851 whole entry): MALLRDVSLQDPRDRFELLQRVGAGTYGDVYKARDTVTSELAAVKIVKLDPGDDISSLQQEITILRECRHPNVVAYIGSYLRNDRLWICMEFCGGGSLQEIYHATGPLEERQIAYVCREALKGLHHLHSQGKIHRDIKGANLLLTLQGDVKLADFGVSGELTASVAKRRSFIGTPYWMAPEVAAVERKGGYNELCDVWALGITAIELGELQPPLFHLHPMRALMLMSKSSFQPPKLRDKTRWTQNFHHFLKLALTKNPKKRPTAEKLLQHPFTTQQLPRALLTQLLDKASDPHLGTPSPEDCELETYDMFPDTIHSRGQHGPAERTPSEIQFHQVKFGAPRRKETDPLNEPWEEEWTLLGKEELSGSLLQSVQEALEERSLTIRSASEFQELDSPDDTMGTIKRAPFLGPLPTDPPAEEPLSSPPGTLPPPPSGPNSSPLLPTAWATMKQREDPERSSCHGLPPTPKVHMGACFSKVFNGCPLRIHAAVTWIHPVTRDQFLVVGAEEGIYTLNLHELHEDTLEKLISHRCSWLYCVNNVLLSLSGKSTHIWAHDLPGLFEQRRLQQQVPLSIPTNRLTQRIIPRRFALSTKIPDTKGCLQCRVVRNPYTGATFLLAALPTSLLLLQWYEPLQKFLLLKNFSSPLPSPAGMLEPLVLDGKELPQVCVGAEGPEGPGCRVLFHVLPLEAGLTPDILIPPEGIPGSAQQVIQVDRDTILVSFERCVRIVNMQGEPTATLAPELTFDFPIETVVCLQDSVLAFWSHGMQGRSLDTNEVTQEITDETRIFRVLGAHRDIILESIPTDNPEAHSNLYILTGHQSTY
Chain of Fibroblast growth factor receptor 3 (P22607 whole entry, the tested form may be a part): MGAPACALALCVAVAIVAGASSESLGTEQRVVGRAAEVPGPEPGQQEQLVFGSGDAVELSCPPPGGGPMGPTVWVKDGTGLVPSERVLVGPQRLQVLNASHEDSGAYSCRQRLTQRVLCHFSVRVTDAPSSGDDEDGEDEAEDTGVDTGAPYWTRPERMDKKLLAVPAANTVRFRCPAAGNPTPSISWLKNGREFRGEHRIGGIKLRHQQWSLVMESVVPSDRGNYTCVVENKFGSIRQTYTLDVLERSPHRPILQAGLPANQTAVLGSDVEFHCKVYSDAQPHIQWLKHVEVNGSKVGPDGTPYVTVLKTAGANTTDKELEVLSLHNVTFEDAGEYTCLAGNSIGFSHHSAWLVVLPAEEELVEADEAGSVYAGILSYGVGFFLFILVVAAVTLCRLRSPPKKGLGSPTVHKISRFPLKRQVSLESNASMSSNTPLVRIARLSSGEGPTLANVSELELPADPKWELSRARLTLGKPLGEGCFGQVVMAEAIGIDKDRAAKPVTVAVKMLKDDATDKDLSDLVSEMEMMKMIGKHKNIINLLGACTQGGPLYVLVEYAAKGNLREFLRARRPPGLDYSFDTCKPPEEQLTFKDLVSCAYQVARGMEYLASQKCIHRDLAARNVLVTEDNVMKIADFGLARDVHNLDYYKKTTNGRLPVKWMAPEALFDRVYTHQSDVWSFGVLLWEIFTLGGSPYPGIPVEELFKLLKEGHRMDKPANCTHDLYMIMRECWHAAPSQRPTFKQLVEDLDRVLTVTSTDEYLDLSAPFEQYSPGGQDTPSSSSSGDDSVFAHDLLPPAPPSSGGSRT
Chain of Caspase-3 (Homo sapiens) (P42574 29-175 limits assumed): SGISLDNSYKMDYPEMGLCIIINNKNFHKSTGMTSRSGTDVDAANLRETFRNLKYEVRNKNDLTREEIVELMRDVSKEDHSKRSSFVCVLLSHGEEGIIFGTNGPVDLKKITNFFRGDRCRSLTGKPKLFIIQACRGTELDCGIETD
Chain of Caspase-3 (Homo sapiens) (P42574 176-277 limits assumed): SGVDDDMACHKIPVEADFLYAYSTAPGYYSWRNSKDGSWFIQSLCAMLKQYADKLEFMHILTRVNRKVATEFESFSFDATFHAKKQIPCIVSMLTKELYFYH
Chain of Serine/threonine-protein kinase Chk2 (O96017 whole entry): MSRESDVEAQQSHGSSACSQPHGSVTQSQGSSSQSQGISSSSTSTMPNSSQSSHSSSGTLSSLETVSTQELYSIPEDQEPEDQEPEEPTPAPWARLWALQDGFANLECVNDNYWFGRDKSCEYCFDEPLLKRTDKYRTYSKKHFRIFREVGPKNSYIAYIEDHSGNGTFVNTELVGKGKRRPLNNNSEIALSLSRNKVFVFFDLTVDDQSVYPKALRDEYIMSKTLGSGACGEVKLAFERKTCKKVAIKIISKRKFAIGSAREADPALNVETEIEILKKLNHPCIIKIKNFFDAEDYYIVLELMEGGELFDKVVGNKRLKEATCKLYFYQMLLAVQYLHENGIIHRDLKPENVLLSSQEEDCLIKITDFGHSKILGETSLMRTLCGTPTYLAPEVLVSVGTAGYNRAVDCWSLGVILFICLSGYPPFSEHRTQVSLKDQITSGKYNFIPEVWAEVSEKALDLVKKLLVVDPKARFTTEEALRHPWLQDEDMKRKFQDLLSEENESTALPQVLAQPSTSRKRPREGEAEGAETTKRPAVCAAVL

C[C@@H]1C[C@H]1C(=O)N1CCN(c2cnc(C#N)c(-c3cnn(C)c3)n2)C[C@H]1C
inhibition [1]: 0% | inhibition [2]: 10% | inhibition [3]: 3% | IC50 [4]: > 100 µM | IC50 [5]: > 100 µM | inhibition [6]: -3% | IC50 [7]: > 100 µM | IC50 [8]: > 100 µM | IC50 [9]: > 100 µM | inhibition [10]: -1% | IC50 [11]: > 100 µM | inhibition [12]: 1% | inhibition [13]: 0% | inhibition [14]: 6% | inhibition [15]: 9% | inhibition [16]: 11% | IC50 [17]: > 100 µM | IC50 [18]: > 100 µM | inhibition [19]: 10% | IC50 [20]: > 100 µM | IC50 [21]: > 100 µM | IC50 [22]: 37.6 µM | IC50 [23]: > 100 µM | IC50 [24]: > 100 µM | inhibition [25]: 1%
